Measurements taken from patent US9562057B2, “(Thieno[2,3-b][1,5]benzoxazepin-4-yl)piperazin-1-yl compounds as dual activity H1 inverse agonists/5-HT2A antagonists” (Eli Lilly and Company, priority 2013, dated 2017).
Structures can show the parent of a compound that is named as a salt.

How the values were obtained:
Adrenergic alpha1A = Adrenergic alpha1A (Homo sapiens, UniProt P35348); test: Adrenergic alpha1A binding
From the text: (§1) Further, the compounds of the invention may be tested in binding assays and functional activity assays by well known methods for other physiologically important receptors such as, but not limited to, the hERG channel, other serotonin receptors (specifically 5-HT1B and 5-HT1D receptors, lack of agonist activity at 5-HT2B receptors, 5-HT2C, 5-HT5, 5-HT6, and 5-HT7 receptors), dopaminergic receptors (specifically D1, D2, and D3), GABAA receptors, adrenergic receptors and monoamine transporters.

5-HT5 = 5-HT5 (Homo sapiens, UniProt P47898); test: 5-HT5 binding
From the text: as §1

Dopamine D2 = Dopamine D2 (Homo sapiens, UniProt P14416); test: Dopamine D2 binding
From the text: as §1

5-HT6 = 5-HT6 (Homo sapiens, UniProt P50406); test: 5-HT6 binding
From the text: as §1

5-HT7 = 5-HT7 (Homo sapiens, UniProt P34969); test: 5-HT7 binding
From the text: as §1

hERG Channel = hERG Channel (Homo sapiens, UniProt Q12809); test: hERG channel inhibition; conditions: inhibition at 10 μM
From the text: as §1

[1] = target: T1, recombinant H1 receptor (human) (Homo sapiens, UniProt P35367); test: H1 competition binding assay ([3H]-Pyrilamine, SPA)
T1 construct: expressed in transfected cells; host or cells: HEK-293
Protocol: [^3H]-Pyrilamine binding experiments are carried out in SPA (scintillation proximity assay) 96-well format. Membranes used in this assay are prepared from HEK-293 cells stably expressing recombinant H1 receptor (human). The incubation is initiated by the addition of a mixture of WGA PVT SPA beads (1 mg/well, Perkin Elmer (MA, USA) RPNQ0001) and 3 μg membranes to assay buffer (67 mM Tris; pH 7.6) containing 3.5 nM [^3H]-Pyrilamine and varying concentrations of the test compound (10 point concentration response curves). Non-specific binding is determined in the presence of 10 μM Triprolidine. Samples are incubated for 4 hr. at room temperature (22° C.) and then read in a Microbeta® Trilux.
Binding data analysis Curves are evaluated using a 4-parameter logistic nonlinear equation to obtain the concentration of competitor causing 50% inhibition of radioligand binding (IC50). Equilibrium dissociation constants (Ki) are calculated according to the equation Ki=IC50/(1+L/Kd), where L equals the concentration of radioligand used in the experiment and Kd equals the equilibrium dissociation constant of the radioligand for the receptor, determined from standard saturation analysis or homologous competition experiments. Reported values for Ki, where n values are indicated, are shown as geometric mean±the standard error of the mean (SEM), with the number of replicate determinations indicated by n. […]

Adrenergic alpha2A = Adrenergic alpha2A (Homo sapiens, UniProt P08913); test: Adrenergic alpha2A binding
From the text: as §1

5-HT2B [2] = target: T2, 5-HT2B (Homo sapiens, UniProt P41595); test: 5-HT2B agonist functional activity; assay type: biochemical; conditions: agonist mode
From the text: as §1

5-HT2A Receptor = target: T3, 5-HT2A Receptor (Rattus norvegicus, UniProt P14842); test: 5-HT2A receptor occupancy in vivo (MDL 100907 tracer); conditions: male Sprague-Dawley rats, oral gavage, 1 hr. before tracer, absolute ED50
T3 construct: samples of the frontal cortex and cerebellum are removed; from tissue; host or cells: rat brain (frontal cortex versus cerebellum), in vivo
Protocol: Briefly, male Sprague-Dawley rats (Harlan Sprague-Dawley, Indianapolis, Ind.) weighing approximately 230-280 grams are given ad lib access to food and water until the beginning of the 3-hr. experimental protocol. 1 mg/kg ketanserin (non-selective 5-HT2A antagonist) is used as a positive control to establish assay validity. Test compounds or control are administered by oral gavage in a vehicle comprised of 20% hydroxypropyl beta-cyclodextrin. MDL 100907 ((R)-(+)-α-(2,3-Dimethoxyphenyl)-1-[2-(4-fluorophenyl)ethyl]-4-piperidinemethanol), a selective 5-HT2A antagonist, is used as a tracer. […] It is at the time of tracer administration that RO is considered to be measured. […] The level of MDL 100907 tracer is measured in each cortical and cerebellar sample. RO is calculated using the well-established ratio method which employs a region of high receptor density representative of total binding (frontal cortex) normalized by an area without or with very low levels of receptor (cerebellum). […]
Cortex and cerebellar samples are weighed and placed in conical centrifuge tubes on ice. […] Standards are prepared by adding known quantities of analyte to brain tissue samples from non-treated rats and processing as described above. […]

5-HT2B [3] = target: T2, 5-HT2B; test: 5-HT2B binding
From the text: as §1

T2 sequence (P41595 whole entry, species assumed): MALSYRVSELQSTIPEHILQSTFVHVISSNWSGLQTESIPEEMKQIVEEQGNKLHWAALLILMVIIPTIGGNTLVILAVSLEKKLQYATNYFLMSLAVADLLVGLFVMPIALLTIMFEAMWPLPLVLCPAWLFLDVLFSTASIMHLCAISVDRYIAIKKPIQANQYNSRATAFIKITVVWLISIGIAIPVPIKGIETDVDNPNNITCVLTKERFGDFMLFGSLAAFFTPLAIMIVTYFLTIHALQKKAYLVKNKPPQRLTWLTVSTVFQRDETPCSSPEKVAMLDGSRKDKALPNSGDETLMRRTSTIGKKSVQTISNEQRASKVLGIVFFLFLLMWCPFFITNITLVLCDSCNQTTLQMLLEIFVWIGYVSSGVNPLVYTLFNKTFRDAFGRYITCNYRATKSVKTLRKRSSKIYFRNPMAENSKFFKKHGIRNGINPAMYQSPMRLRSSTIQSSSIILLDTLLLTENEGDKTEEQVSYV
T1 sequence (P35367 whole entry): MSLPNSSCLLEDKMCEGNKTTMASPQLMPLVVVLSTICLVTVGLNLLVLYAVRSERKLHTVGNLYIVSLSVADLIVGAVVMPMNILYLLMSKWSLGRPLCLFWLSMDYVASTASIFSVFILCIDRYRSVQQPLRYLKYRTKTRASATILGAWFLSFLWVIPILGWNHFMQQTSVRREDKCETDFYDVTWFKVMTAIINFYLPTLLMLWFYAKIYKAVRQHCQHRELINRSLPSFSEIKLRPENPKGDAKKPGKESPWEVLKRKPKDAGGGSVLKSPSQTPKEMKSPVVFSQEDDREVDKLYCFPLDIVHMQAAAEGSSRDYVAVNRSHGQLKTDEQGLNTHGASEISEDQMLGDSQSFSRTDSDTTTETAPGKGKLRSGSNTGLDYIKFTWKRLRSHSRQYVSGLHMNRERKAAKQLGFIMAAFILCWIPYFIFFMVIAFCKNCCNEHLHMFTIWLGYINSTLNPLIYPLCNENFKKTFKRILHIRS
Sequence of 5-HT7 (P34969 whole entry, species assumed): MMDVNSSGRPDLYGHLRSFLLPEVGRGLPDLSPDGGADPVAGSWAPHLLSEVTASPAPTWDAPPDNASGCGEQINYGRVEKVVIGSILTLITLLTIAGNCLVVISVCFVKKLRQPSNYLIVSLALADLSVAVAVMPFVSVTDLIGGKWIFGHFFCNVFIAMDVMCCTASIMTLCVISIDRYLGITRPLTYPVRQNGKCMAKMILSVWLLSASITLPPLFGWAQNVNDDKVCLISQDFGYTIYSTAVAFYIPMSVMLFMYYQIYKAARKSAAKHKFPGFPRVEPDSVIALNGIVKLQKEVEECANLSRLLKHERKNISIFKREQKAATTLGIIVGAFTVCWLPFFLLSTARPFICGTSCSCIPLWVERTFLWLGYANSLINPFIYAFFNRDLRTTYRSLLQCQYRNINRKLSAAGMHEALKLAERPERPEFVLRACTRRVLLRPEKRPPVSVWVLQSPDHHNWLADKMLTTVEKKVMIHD
Sequence of 5-HT5 (P47898 whole entry, species assumed): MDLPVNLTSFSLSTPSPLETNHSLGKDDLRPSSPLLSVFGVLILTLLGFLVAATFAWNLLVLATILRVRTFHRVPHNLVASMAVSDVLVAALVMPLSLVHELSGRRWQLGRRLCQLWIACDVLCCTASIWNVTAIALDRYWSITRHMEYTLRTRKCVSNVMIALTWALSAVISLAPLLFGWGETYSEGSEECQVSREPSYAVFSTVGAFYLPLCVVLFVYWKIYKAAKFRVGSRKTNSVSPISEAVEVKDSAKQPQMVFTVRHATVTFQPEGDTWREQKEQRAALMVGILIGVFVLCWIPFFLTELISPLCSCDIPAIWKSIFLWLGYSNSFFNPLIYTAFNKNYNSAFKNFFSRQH
Sequence of hERG Channel (Q12809 whole entry): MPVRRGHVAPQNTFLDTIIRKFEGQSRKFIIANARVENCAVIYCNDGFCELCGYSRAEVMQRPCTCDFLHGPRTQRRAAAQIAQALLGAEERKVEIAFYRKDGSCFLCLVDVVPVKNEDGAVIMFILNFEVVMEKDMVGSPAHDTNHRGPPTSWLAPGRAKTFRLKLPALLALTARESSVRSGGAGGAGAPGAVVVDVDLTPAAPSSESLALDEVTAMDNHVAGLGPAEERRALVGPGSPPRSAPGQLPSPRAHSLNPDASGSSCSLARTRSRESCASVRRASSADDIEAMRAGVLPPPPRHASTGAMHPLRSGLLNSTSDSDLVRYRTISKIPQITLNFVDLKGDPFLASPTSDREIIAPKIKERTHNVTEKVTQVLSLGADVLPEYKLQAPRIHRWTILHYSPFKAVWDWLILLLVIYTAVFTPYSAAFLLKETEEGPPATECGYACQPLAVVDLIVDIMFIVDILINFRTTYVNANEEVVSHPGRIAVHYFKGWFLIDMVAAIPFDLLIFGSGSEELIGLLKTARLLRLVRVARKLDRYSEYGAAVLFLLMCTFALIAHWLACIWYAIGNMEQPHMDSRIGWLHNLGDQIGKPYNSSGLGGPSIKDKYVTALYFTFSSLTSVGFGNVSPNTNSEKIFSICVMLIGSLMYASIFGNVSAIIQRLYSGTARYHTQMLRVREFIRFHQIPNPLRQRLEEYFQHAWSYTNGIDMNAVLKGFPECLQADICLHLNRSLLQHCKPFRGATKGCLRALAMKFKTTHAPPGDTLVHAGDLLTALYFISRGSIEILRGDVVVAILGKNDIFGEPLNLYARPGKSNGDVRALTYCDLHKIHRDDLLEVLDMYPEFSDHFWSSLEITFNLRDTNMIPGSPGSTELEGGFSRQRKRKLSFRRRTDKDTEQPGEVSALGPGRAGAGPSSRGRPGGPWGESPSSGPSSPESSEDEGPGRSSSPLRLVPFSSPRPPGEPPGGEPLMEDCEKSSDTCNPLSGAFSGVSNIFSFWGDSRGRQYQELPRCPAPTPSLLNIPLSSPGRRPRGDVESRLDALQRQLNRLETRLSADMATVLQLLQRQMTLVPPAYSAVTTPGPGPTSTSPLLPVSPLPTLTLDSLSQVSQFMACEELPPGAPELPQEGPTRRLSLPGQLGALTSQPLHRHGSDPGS
Sequence of Dopamine D2 (P14416 whole entry): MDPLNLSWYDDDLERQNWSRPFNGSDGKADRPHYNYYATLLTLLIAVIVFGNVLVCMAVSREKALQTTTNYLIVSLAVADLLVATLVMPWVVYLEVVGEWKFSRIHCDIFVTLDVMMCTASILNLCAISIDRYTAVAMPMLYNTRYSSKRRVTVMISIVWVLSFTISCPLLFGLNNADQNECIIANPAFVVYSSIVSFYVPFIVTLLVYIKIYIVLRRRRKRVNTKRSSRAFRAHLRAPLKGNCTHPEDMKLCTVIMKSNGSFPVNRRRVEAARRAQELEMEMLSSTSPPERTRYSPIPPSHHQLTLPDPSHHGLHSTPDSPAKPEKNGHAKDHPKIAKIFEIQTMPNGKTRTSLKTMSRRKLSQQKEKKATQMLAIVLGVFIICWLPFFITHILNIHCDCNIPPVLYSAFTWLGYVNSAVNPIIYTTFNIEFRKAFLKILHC
Sequence of Adrenergic alpha2A (P08913 whole entry): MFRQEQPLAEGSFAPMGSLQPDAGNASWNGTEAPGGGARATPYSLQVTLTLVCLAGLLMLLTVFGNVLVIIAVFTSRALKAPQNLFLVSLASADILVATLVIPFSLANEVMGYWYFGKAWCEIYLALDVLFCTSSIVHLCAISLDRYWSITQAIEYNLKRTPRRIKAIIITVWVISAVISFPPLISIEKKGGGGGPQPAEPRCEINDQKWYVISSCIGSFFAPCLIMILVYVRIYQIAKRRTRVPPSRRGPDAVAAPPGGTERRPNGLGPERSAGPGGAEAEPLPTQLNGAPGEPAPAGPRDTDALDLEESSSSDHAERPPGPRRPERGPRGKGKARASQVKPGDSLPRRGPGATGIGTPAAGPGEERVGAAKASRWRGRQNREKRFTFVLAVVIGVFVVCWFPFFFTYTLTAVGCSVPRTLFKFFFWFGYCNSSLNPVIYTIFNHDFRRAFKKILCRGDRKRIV
Sequence of 5-HT6 (P50406 whole entry, species assumed): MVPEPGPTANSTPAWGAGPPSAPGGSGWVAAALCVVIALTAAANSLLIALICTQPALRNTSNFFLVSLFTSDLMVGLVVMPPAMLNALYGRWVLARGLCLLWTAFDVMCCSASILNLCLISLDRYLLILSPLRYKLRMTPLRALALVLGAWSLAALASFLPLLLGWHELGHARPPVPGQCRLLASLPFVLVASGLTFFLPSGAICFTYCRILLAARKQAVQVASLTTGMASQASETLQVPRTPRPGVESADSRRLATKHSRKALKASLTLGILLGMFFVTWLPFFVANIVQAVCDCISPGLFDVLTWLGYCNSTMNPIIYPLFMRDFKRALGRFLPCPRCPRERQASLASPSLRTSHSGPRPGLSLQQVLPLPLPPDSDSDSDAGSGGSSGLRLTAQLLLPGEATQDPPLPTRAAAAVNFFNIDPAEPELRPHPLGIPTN
Sequence of Adrenergic alpha1A (P35348 whole entry): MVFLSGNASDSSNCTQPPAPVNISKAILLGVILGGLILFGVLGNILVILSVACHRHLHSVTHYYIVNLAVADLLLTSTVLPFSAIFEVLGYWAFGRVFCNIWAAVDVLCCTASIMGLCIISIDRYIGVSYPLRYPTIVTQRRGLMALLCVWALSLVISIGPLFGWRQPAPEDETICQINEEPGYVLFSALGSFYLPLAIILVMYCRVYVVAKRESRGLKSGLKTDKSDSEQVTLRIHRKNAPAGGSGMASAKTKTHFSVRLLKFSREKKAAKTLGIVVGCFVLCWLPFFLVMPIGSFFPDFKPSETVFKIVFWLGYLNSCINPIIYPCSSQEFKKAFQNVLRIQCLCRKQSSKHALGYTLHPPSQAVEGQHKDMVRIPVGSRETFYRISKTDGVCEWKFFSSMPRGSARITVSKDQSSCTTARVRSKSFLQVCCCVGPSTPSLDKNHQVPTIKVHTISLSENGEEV

Question: For `Cc1ccc2c(c1)Oc1sc(C3CC3)cc1C(N1CCN(CC(C)(C)C(=O)O)CC1)=N2` [Example 2, 3-[4-(2-Cyclopropyl-8-methyl-thieno[2,3-b][1,5]benzoxazepin-4-yl)piperazin-1-yl]-2,2-dimethyl-propanoic acid dihydrochloride], which Ki (Adrenergic alpha1A) is on record?
Answer: Its Ki is 4.62 µM.

Question: And the Ki (5-HT5)?
Answer: The Ki was 3.48 µM.

Question: And the Ki (Dopamine D2)?
Answer: The Ki was 2.32 µM.

Question: And the Ki (5-HT6)?
Answer: Its Ki is > 5.83 µM.

Question: And the Ki (5-HT7)?
Answer: The Ki was > 2.06 µM.

Question: And the “hERG Channel (μM)” value (hERG Channel)?
Answer: The value was 53% inhibition.

Question: What about the Ki [1] of the same compound?
Answer: Its Ki is 0.0432 µM.

Question: And the Ki (Adrenergic alpha2A)?
Answer: Its Ki is 5.92 µM.

Question: What about the EC50 (5-HT2B [2]) of the same compound?
Answer: Its EC50 is > 10 µM.

Question: And the ED50 (5-HT2A Receptor)?
Answer: The ED50 was 0.41 mg/kg.

Question: And the Ki (5-HT2B [3])?
Answer: The Ki was 0.118 µM.
